Test results reported in a compilation of properties of binary mixtures (doi:10.1016/j.molliq.2020.114495).

Experiment: xn = mol fraction of the nth substance listed
Conditions: 100 kPa

O=S(=O)([N-]S(=O)(=O)C(F)(F)F)C(F)(F)F.[Li+] + OCCO
Conditions	electrical conductivity, 303 K [S/m]	electrical conductivity, 318.1 K [S/m]	electrical conductivity, 333 K [S/m]	viscosity, 303 K [mPa·s]	viscosity, 318.1 K [mPa·s]	viscosity, 333 K [mPa·s]
x1 = 0.143	0.129	0.296	0.516	18.14	12.79	8.55
x1 = 0.167	0.275	0.604	0.928	19.25	13.57	8.71
x1 = 0.2	0.305	0.738	1.2	21.4	14.53	10.21
x1 = 0.25	0.291	0.623	1.07	23.79	16.35	10.61
x1 = 0.333	0.281	0.559	0.88	30.24	18.69	11.02
x1 = 0.5	0.275	0.534	–	58.8	35.26	–

OCCO + O=S(=O)([N-]S(=O)(=O)C(F)(F)F)C(F)(F)F.[Li+]
x2 = 0
Conditions	viscosity [mPa·s]
303 K	13.53
318.1 K	9.59
333 K	7.47
